The text below walks through data of patent publication US8076487B2, “Pyridone derivative and herbicide” (Kumiai Chemical Industry Co., Ltd., priority 2006, dated 2011).

Type in all cases: in vivo
Test [1] has as its system heartshape false pickerelweed (Monochoria vaginalis (Burm.f.) C.Presl). Nature of the test: Test Example 1: herbicidal effect by soil application to paddy field. The settings on record: for herbicidal effect, Monochoria vaginalis (Burm. f.) C. Presl: paddy field soil application, active ingredient 1,000 g per 1 hectare, wettable powder added dropwise to water surface the day after sowing, examined on the 21st day after application. Summed up: (§1)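 Under greenhouse conditions, seeds sown on puddled paddy soil in 100 cm2 pots under 3 cm of standing water received the test compound; injury was assessed with a standard scoring scheme three weeks (day 21) after treatment.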

The test system of test [2] is Japanese bulrush (Scirpus juncoides Roxb.). The description is as above. As to conditions: for herbicidal effect, Scirpus juncoides Roxb.: paddy field soil application, active ingredient 1,000 g per 1 hectare, wettable powder added dropwise to water surface the day after sowing, examined on the 21st day after application. Summed up:
as §1

Test [3] concerns early watergrass (Echinochloa oryzicola Vasing). The test is described as above. The settings on record: for herbicidal effect, Echinochloa oryzicola Vasing: paddy field soil application, active ingredient 1,000 g per 1 hectare, wettable powder added dropwise to water surface the day after sowing, examined on the 21st day after application. Summed up:
as §1

The subject of test [4] is slender amaranth (Amaranthus viridis L.). The test can be described thus: Test Example 2: herbicidal effect by soil application to upland field. As to conditions: soil surface spray, upland field soil, 1,000 g active ingredient per hectare, 21st day after application. Summed up:
(§2)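 A standard visual rating of herbicidal effect, made 21 days after treatment, gives the value. Treatment consisted of a uniform spray of water-diluted wettable powder on the soil covering newly sown seeds, equivalent to 1,000 g active ingredient and 1,000 liters per hectare.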

For test [5], the system named is green foxtail (Setaria viridis (L.) P. Beauv.). The test is described as above. As to conditions: soil surface spray, upland field soil, 1,000 g active ingredient per hectare, 21st day after application. Put shortly: as §2
In test [6] the test system is barnyardgrass (Echinochloa crus-galli (L.) P. Beauv. var. crus-galli). The description is as above. The settings on record: soil surface spray, upland field soil, 1,000 g active ingredient per hectare, 21st day after application. Put shortly:
as §2

Test [7] concerns velvetleaf (Abutilon theophrasti medicus). Described as above. The settings on record: soil surface spray, upland field soil, 1,000 g active ingredient per hectare, 21st day after application. Put shortly: as §2
The subject of test [8] is slender amaranth (Amaranthus viridis L.). Nature of the test: Test Example 3: herbicidal effect by application to upland field (foliage treatment). As to conditions: 14th day after application; for herbicidal effect, Slender Amaranth: foliage treatment, 1,000 g active ingredient per 1 hectare, greenhouse. Summed up:
(§3)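 Dose 1,000 g active ingredient/ha, sprayed as diluted wettable powder over entire plants two weeks after sowing in field soil. Kept in greenhouse; herbicidal effect graded on a standard scale on day 14.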

Test [9] deals with green foxtail (Setaria viridis (L.) P. Beauv.). The test is described as above. The settings on record: 14th day after application; for herbicidal effect, Green Foxtail: foliage treatment, 1,000 g active ingredient per 1 hectare, greenhouse. Put shortly:
as §3

Test [10] has as its system barnyardgrass (Echinochloa crus-galli (L.) P. Beauv. var. crus-galli). The description is as above. The settings on record: 14th day after application; for herbicidal effect, Barnyardgrass: foliage treatment, 1,000 g active ingredient per 1 hectare, greenhouse. Put shortly:
as §3

Test [11] has as its system velvetleaf (Abutilon theophrasti medicus). Described as above. The settings on record: 14th day after application; for herbicidal effect, Velvetleaf: foliage treatment, 1,000 g active ingredient per 1 hectare, greenhouse. Summed up:
as §3

The mark [12] stands for this setting: soil application to paddy field, rated by standard of Table 34.
[13] abbreviates: foliage treatment, plants grown two weeks, 1,000 g active ingredient per hectare.

Turning to `O=C1CCCC(O)=C1C(=O)c1cnccn1` [Comparative Compound 1, reference compound], the “herbicidal effect (index), Monochoria vaginalis (Burm.f.) C.Presl” value in test [1] (setting [12]) was 0 (0 to less than 10% of herbicidal effect and crop phytotoxicity). For the same molecule, the “herbicidal effect (index), Scirpus juncoides Roxb.” value in [2] (setting [12]) is 0 (0 to less than 10% of herbicidal effect and crop phytotoxicity). In test [3] (setting [12]), the “herbicidal effect (index), Echinochloa oryzicola Vasing” value is 1 (10 to less than 30% of herbicidal effect and crop phytotoxicity). Further, in [4], the “herbicidal effect (index), Slender Amaranth” value was 0 (0 to less than 10% of herbicidal effect and crop phytotoxicity). Also, in test [5], the “herbicidal effect (index), Green Foxtail” value was 1 (10 to less than 30% of herbicidal effect and crop phytotoxicity). Further, the “herbicidal effect (index), Barnyardgrass” value in [6] is 1 (10 to less than 30% of herbicidal effect and crop phytotoxicity). Also, the “herbicidal effect (index), Velvetleaf” value in [7] is 1 (10 to less than 30% of herbicidal effect and crop phytotoxicity). Besides, the “herbicidal effect, Slender Amaranth” value in test [8] was 1 (10 to less than 30% of herbicidal effect and crop phytotoxicity). In addition, the “herbicidal effect, Green Foxtail” value in test [9] was 0 (0 to less than 10% of herbicidal effect and crop phytotoxicity). In addition, the “herbicidal effect, Barnyardgrass” value in test [10] is 0 (0 to less than 10% of herbicidal effect and crop phytotoxicity). Also, in test [11], the “herbicidal effect, Velvetleaf” value is 2 (30 to less than 50% of herbicidal effect and crop phytotoxicity).
As to `O=C1CCCC(O)=C1C(=O)c1ccc(C(F)(F)F)n(CSC2CC2)c1=O` [I-52], the “herbicidal effect, Monochoria vaginalis (Burm. f.) C. Presl” value (from here on “herbicidal effect, Monochoria vaginalis”) in test [1] is 5 (90% or more of herbicidal effect and crop phytotoxicity). Moreover, in test [2], the “herbicidal effect, Scirpus juncoides Roxb.” value was 5 (90% or more of herbicidal effect and crop phytotoxicity). Besides, in test [3], the “herbicidal effect, Echinochloa oryzicola Vasing” value was 5 (90% or more of herbicidal effect and crop phytotoxicity). Also, the “herbicidal effect (index), Slender Amaranth” value in test [4] is 5 (90% or more of herbicidal effect and crop phytotoxicity); in test [8] (setting [13]) it was 5 (90% or more of herbicidal effect and crop phytotoxicity). The “herbicidal effect (index), Green Foxtail” value in [5] was 5 (90% or more of herbicidal effect and crop phytotoxicity); in test [9] (setting [13]), 5 (90% or more of herbicidal effect and crop phytotoxicity). The “herbicidal effect (index), Barnyardgrass” value in test [6] was 5 (90% or more of herbicidal effect and crop phytotoxicity); in test [10] (setting [13]), 5 (90% or more of herbicidal effect and crop phytotoxicity). Further, the “herbicidal effect (index), Velvetleaf” value in [7] was 5 (90% or more of herbicidal effect and crop phytotoxicity); in test [11] (setting [13]), 5 (90% or more of herbicidal effect and crop phytotoxicity).
As for `Cc1cc(-n2c(C(F)(F)F)ccc(C(=O)C3=C(O)CCCC3=O)c2=O)no1` [I-142], the “herbicidal effect, Monochoria vaginalis” value in test [1] was 5 (90% or more of herbicidal effect and crop phytotoxicity). For the same molecule, the “herbicidal effect, Scirpus juncoides Roxb.” value in test [2] is 5 (90% or more of herbicidal effect and crop phytotoxicity). In test [3], the “herbicidal effect, Echinochloa oryzicola Vasing” value was 5 (90% or more of herbicidal effect and crop phytotoxicity). Further, the “herbicidal effect (index), Slender Amaranth” value in test [4] was 5 (90% or more of herbicidal effect and crop phytotoxicity). Also, in test [5], the “herbicidal effect (index), Green Foxtail” value was 5 (90% or more of herbicidal effect and crop phytotoxicity). For the same molecule, the “herbicidal effect (index), Barnyardgrass” value in [6] was 5 (90% or more of herbicidal effect and crop phytotoxicity). Further, the “herbicidal effect (index), Velvetleaf” value in test [7] was 5 (90% or more of herbicidal effect and crop phytotoxicity). In addition, the “herbicidal effect, Slender Amaranth” value in test [8] was 5 (90% or more of herbicidal effect and crop phytotoxicity). Moreover, the “herbicidal effect, Green Foxtail” value in test [9] is 5 (90% or more of herbicidal effect and crop phytotoxicity). Besides, the “herbicidal effect, Barnyardgrass” value in test [10] is 5 (90% or more of herbicidal effect and crop phytotoxicity). The “herbicidal effect, Velvetleaf” value in [11] was 5 (90% or more of herbicidal effect and crop phytotoxicity).
For the molecule `O=C(C1=C(O)C2CCC(C2)C1=O)c1ccc(C(F)(F)F)n(C2CCCC2)c1=O` (centres unmarked) [III-11], the “herbicidal effect, Monochoria vaginalis” value in test [1] was 5 (90% or more of herbicidal effect and crop phytotoxicity). The “herbicidal effect, Scirpus juncoides Roxb.” value in test [2] was 5 (90% or more of herbicidal effect and crop phytotoxicity). The “herbicidal effect, Echinochloa oryzicola Vasing” value in test [3] is 5 (90% or more of herbicidal effect and crop phytotoxicity). Besides, the “herbicidal effect (index), Slender Amaranth” value in [4] is 5 (90% or more of herbicidal effect and crop phytotoxicity). For the same molecule, the “herbicidal effect (index), Green Foxtail” value in [5] was 4 (70 to less than 90% of herbicidal effect and crop phytotoxicity). Further, the “herbicidal effect (index), Barnyardgrass” value in test [6] was 4 (70 to less than 90% of herbicidal effect and crop phytotoxicity). Further, the “herbicidal effect (index), Velvetleaf” value in [7] was 5 (90% or more of herbicidal effect and crop phytotoxicity). In addition, the “herbicidal effect, Slender Amaranth” value in test [8] is 5 (90% or more of herbicidal effect and crop phytotoxicity). In addition, in [9], the “herbicidal effect, Green Foxtail” value is 5 (90% or more of herbicidal effect and crop phytotoxicity). Moreover, in test [10], the “herbicidal effect, Barnyardgrass” value was 5 (90% or more of herbicidal effect and crop phytotoxicity). Further, the “herbicidal effect, Velvetleaf” value in [11] was 5 (90% or more of herbicidal effect and crop phytotoxicity).
`CCn1c(C(F)(F)F)ccc(C(=O)c2cnn(C)c2O)c1=O` [IV-2]: in test [1], the “herbicidal effect, Monochoria vaginalis” value is 5 (90% or more of herbicidal effect and crop phytotoxicity). Moreover, the “herbicidal effect, Scirpus juncoides Roxb.” value in test [2] was 5 (90% or more of herbicidal effect and crop phytotoxicity). Besides, the “herbicidal effect, Echinochloa oryzicola Vasing” value in [3] is 5 (90% or more of herbicidal effect and crop phytotoxicity). Also, in test [4], the “herbicidal effect (index), Slender Amaranth” value was 5 (90% or more of herbicidal effect and crop phytotoxicity). Also, the “herbicidal effect (index), Green Foxtail” value in test [5] is 5 (90% or more of herbicidal effect and crop phytotoxicity). In addition, in [6], the “herbicidal effect (index), Barnyardgrass” value was 5 (90% or more of herbicidal effect and crop phytotoxicity). For the same molecule, in test [7], the “herbicidal effect (index), Velvetleaf” value is 5 (90% or more of herbicidal effect and crop phytotoxicity). The “herbicidal effect, Slender Amaranth” value in test [8] is 5 (90% or more of herbicidal effect and crop phytotoxicity). In addition, in test [9], the “herbicidal effect, Green Foxtail” value was 5 (90% or more of herbicidal effect and crop phytotoxicity). Further, the “herbicidal effect, Barnyardgrass” value in [10] is 5 (90% or more of herbicidal effect and crop phytotoxicity). The “herbicidal effect, Velvetleaf” value in [11] was 5 (90% or more of herbicidal effect and crop phytotoxicity).
On to `CCCS(=O)(=O)Oc1c(C(=O)c2ccc(C(F)(F)F)n(CC(F)(F)F)c2=O)cnn1C` [IV-10], for which the “herbicidal effect, Monochoria vaginalis” value in test [1] is 5 (90% or more of herbicidal effect and crop phytotoxicity). In test [2], the “herbicidal effect, Scirpus juncoides Roxb.” value was 5 (90% or more of herbicidal effect and crop phytotoxicity). For the same molecule, the “herbicidal effect, Echinochloa oryzicola Vasing” value in [3] was 5 (90% or more of herbicidal effect and crop phytotoxicity). The “herbicidal effect (index), Slender Amaranth” value in test [4] is 5 (90% or more of herbicidal effect and crop phytotoxicity). In addition, the “herbicidal effect (index), Green Foxtail” value in test [5] was 5 (90% or more of herbicidal effect and crop phytotoxicity). In test [6], the “herbicidal effect (index), Barnyardgrass” value is 5 (90% or more of herbicidal effect and crop phytotoxicity). In addition, in test [7], the “herbicidal effect (index), Velvetleaf” value was 5 (90% or more of herbicidal effect and crop phytotoxicity). Also, the “herbicidal effect, Slender Amaranth” value in [8] was 5 (90% or more of herbicidal effect and crop phytotoxicity). In addition, the “herbicidal effect, Green Foxtail” value in test [9] was 4 (70 to less than 90% of herbicidal effect and crop phytotoxicity). For the same molecule, the “herbicidal effect, Barnyardgrass” value in test [10] was 5 (90% or more of herbicidal effect and crop phytotoxicity). In addition, in [11], the “herbicidal effect, Velvetleaf” value was 4 (70 to less than 90% of herbicidal effect and crop phytotoxicity).
With `O=C1CCCC(O)=C1C(=O)c1ccc(C(F)(F)F)n(CC2CCOC2)c1=O` (centres unmarked) [I-154], the “herbicidal effect, Monochoria vaginalis” value in test [1] is 5 (90% or more of herbicidal effect and crop phytotoxicity). For the same molecule, in test [2], the “herbicidal effect, Scirpus juncoides Roxb.” value was 5 (90% or more of herbicidal effect and crop phytotoxicity). Besides, the “herbicidal effect, Echinochloa oryzicola Vasing” value in test [3] was 5 (90% or more of herbicidal effect and crop phytotoxicity). Besides, the “herbicidal effect (index), Slender Amaranth” value in test [4] was 5 (90% or more of herbicidal effect and crop phytotoxicity). The “herbicidal effect (index), Green Foxtail” value in test [5] was 3 (50 to less than 70% of herbicidal effect and crop phytotoxicity). Besides, in test [6], the “herbicidal effect (index), Barnyardgrass” value was 4 (70 to less than 90% of herbicidal effect and crop phytotoxicity). In [7], the “herbicidal effect (index), Velvetleaf” value is 5 (90% or more of herbicidal effect and crop phytotoxicity). In addition, the “herbicidal effect, Slender Amaranth” value in test [8] was 5 (90% or more of herbicidal effect and crop phytotoxicity). Moreover, the “herbicidal effect, Green Foxtail” value in test [9] is 5 (90% or more of herbicidal effect and crop phytotoxicity). Further, the “herbicidal effect, Barnyardgrass” value in [10] was 4 (70 to less than 90% of herbicidal effect and crop phytotoxicity). The “herbicidal effect, Velvetleaf” value in test [11] was 5 (90% or more of herbicidal effect and crop phytotoxicity).
